# In patent publication US20240158418A1 (C4 Therapeutics, Inc., priority 2021, published 2024):
# Like-named read-outs stand apart in the source and are kept apart here.
# Legend:
# [1] = biological target: T1, EGFR L858R-T790M (Homo sapiens, UniProt P00533, L858R/T790M); experiment: EGFR degradation, Total EGFR (L858R-specific) HTRF, NCI-H1975; assay type: cell-based; settings: 6 hours
# T1 construct: NCI-H1975 (harboring EGFR heterozygous L858R-T790M mutations); host or cells: NCI-H1975
# How it was run: (§1)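 HTRF read-outs: pY1068 phospho-EGFR for IC50; total EGFR (pan-EGFR in A431, L858R-specific in mutant lines) for DC50. Compounds were titrated 11 points, half-log, from 10 μM in duplicate onto cells in 10% FBS RPMI, incubated 6 h at 37°C.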
# [2] = biological target: T2, pY1068 EGFR L858R-T790M (Homo sapiens, UniProt P00533, L858R/T790M); experiment: Phospho-EGFR (pY1068) inhibition HTRF, NCI-H1975; assay type: cell-based; settings: 6 hours, read-out: pEGFR IC50
# T2 construct: NCI-H1975 (harboring EGFR heterozygous L858R-T790M mutations); host or cells: NCI-H1975
# T2 sequence (P00533 25-1210 T790M/L858R): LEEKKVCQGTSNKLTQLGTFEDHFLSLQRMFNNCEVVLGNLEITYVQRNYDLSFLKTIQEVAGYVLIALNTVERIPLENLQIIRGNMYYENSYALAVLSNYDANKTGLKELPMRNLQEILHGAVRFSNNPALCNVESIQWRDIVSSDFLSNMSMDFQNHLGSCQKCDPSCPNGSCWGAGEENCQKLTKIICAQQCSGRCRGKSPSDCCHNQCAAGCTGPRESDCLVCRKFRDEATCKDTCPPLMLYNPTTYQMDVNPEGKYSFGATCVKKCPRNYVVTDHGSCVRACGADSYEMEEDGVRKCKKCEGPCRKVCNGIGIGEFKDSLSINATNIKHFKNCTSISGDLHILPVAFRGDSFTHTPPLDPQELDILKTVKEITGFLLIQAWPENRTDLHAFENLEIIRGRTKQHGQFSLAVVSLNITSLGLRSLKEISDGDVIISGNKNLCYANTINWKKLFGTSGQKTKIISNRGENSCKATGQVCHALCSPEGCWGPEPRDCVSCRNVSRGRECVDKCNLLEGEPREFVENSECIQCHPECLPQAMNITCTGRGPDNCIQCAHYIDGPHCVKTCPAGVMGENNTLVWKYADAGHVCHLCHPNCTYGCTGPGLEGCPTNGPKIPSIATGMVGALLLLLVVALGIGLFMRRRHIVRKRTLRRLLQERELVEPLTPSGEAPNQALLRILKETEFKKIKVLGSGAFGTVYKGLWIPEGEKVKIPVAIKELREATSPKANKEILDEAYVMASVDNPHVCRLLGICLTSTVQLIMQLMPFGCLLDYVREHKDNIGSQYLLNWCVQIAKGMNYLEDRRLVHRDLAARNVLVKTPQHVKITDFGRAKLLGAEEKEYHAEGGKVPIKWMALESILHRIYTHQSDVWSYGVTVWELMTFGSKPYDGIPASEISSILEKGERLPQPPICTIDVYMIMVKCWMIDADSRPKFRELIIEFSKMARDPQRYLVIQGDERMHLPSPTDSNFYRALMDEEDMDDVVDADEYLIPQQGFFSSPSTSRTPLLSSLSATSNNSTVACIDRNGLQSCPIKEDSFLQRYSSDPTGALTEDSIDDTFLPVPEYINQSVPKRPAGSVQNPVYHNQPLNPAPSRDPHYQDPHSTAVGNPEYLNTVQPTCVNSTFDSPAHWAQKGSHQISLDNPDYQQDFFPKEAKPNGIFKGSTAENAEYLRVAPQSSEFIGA
# Text: (§2) NCI-H1975 (harboring EGFR heterozygous L858R-T790M mutations) and NCI-H3255 (harboring EGFR heterozygous L858R mutation) were purchased from ATCC and NCI, respectively. NCI-H1975+CS (harboring EGFR heterozygous L858R-T790M-C797S mutations) was generated using CRISPR technology to introduce the additional C797S mutation by Horizon Discovery. A431 (harboring EGFR wildtype) was purchased from ATCC. RPMI 1640 no-phenol red medium and fetal bovine serum (FBS) were purchased from Gibco (Grand Island, NY, USA). Cell culture flasks and 384-well microplates were acquired from VWR (Radnor, PA, USA). Phosphorylated (pY1068) EGFR and Total EGFR (using L858R-specific detection antibody and pan-EGFR antibody for EGFR mutant cell lines and EGFR wild-type cell lines, respectively) HTRF assay kits were purchased from Cisbio (Bedford, MA, USA).
# (§3) Degradation of EGFR protein containing L858R mutation or wild-type was determined based on quantification of FRET signal using a Total EGFR (L858R-specific or pan-EGFR detecting) HTRF assay kit. Phospho-EGFR (pEGFR) inhibition was determined based on quantification of FRET signal using a pY1068 EGFR HTRF assay kit. In separate assay plates, test compounds were added to the 384-well plate from a top concentration of 10 μM with 11 points, half log titration in duplicates. For each assay, 12.5 uL of cells suspended in assay media (RPMI 1640 no-phenol red medium+10% FBS) at cell densities indicated for each cell line in Table 8 below were dispensed using a multi-channel pipette to 384-well low volume white HTRF microplates containing a duplicate concentration range of test compounds and DMSO controls. The plates were kept at 37° C. with 5% CO2 for 6 hours and then incubated with either phospho EGFR or Total EGFR HTRF detection antibodies according to the cell line and EGFR mutant being assayed. Cells treated in the absence of the test compound were the negative control. Positive control was set by wells containing all reagents but no cells. FRET signal was acquired on EnVision™ Multilabel Reader (PerkinElmer, Santa Clara, CA, USA). Compound concentration that achieves 50% degradation and inhibition was reported as DC50 and IC50, respectively.
# [3] = test system: BaF3 cells expressing EGFR L858R-T790M-C797S; experiment: Ba/F3 EGFR cell viability (CellTiter-Glo), L858R-T790M-C797S; assay type: cell-based; settings: Mus musculus, read-out: CTGlo (GI50)
# Text: (§4) RPMI 1640 media, cell culture flasks, and 384-well microplates were purchased from VWR (Radnor, PA, USA). Fetal bovine serum (FBS) was purchased from Life Technologies (Carlsbad, CA, USA) and CellTiter-Glo® was purchased from Promega (Madison, WI, USA). The Ba/F3 parental cell line was purchased from CrownBio (Santa Clara, CA). BaF3 cell lines ectopically expressing the EGFR mutations L858R, L858R-T790M, L858R-C797S, and L858R-T790M-C797S were purchased from CrownBio and EGFR mutations L858R-L718Q, L858R-T790M-L718Q, L858R-L792H, and L858R-T790M-L792H, were purchased from Signosis (Santa Clara, CA).
# (§5) Cell viability was assessed based on the quantification of ATP using the CellTiter-Glo® assay (Promega, Madison, WI, USA). To determine the effect of compounds on cell viability, all Ba/F3 cell lines were plated at a cell density of 2000 cells/well in 384-well plates using RPMI 1640+10% FBS and treated with compounds of interest using a 10-point half-log dilution series in duplicate for 72 hours, with the highest dose set at […]. CellTiter-Glo® reagent was then added and luminescence signals were measured using an EnVision™ Multimode plate reader (Perkin Elmer, Santa Clara, CA). For data normalization, cells untreated with the test compounds at Time=72 hours were set to 100% (equivalent to maximal cell growth after 72 hours); cells untreated with the test compounds at Time=0 hours were set to 0% (equivalent to cytostasis); and media-only wells were set to −100% (equivalent to complete cytotoxicity). % Viability was determined by normalizing the signal with positive and DMSO treated negative controls on the same microtiter plate. The half-maximal inhibition of cell growth (GI50) is computed from where the fitted curve crosses 50% while the half-maximal lethal dose (LD50) is computed from where the fitted curve crosses −50%.
# [4] = test system: BaF3 cells expressing EGFR L858R-L718Q; experiment: Ba/F3 EGFR cell viability (CellTiter-Glo), L858R-L718Q; assay type: cell-based; settings: Mus musculus, read-out: CTGlo (GI50)
# Text: as §4, §5
# [5] = test system: BaF3 cells expressing EGFR L858R-T790M-L718Q; experiment: Ba/F3 EGFR cell viability (CellTiter-Glo), L858R-T790M-L718Q; assay type: cell-based; settings: Mus musculus, read-out: CTGlo (GI50)
# Text: as §4, §5
# [6] = test system: BaF3 cells expressing EGFR L858R-L792H; experiment: Ba/F3 EGFR cell viability (CellTiter-Glo), L858R-L792H; assay type: cell-based; settings: Mus musculus, read-out: CTGlo (GI50)
# Text: as §4, §5
# [7] = test system: BaF3 cells expressing EGFR L858R-T790M-L792H; experiment: Ba/F3 EGFR cell viability (CellTiter-Glo), L858R-T790M-L792H; assay type: cell-based; settings: Mus musculus, read-out: CTGlo (GI50)
# Text: as §4, §5
# [8] = biological target: T3, EGFR L858R-T790M-C797S (Homo sapiens, UniProt P00533, C797S/L858R/T790M); experiment: EGFR degradation, Total EGFR (L858R-specific) HTRF, NCI-H1975+CS; assay type: cell-based; settings: H1975 + CS (L858R-T790M-C797S), 6 hours; read-out: tEGFR DC50
# T3 construct: generated using CRISPR technology to introduce the additional C797S mutation by Horizon Discovery; host or cells: NCI-H1975+CS (CRISPR knock-in of C797S)
# How it was run: as §1
# [9] = biological target: T4, EGFR WT (Homo sapiens, UniProt P00533); experiment: EGFR degradation, Total EGFR (pan-EGFR) HTRF, A431; assay type: cell-based; settings: A431 (wild-type), 6 hours; read-out: tEGFR DC50
# T4 construct: A431 (harboring EGFR wildtype) was purchased from ATCC; host or cells: A431
# T4 sequence (P00533 25-1210): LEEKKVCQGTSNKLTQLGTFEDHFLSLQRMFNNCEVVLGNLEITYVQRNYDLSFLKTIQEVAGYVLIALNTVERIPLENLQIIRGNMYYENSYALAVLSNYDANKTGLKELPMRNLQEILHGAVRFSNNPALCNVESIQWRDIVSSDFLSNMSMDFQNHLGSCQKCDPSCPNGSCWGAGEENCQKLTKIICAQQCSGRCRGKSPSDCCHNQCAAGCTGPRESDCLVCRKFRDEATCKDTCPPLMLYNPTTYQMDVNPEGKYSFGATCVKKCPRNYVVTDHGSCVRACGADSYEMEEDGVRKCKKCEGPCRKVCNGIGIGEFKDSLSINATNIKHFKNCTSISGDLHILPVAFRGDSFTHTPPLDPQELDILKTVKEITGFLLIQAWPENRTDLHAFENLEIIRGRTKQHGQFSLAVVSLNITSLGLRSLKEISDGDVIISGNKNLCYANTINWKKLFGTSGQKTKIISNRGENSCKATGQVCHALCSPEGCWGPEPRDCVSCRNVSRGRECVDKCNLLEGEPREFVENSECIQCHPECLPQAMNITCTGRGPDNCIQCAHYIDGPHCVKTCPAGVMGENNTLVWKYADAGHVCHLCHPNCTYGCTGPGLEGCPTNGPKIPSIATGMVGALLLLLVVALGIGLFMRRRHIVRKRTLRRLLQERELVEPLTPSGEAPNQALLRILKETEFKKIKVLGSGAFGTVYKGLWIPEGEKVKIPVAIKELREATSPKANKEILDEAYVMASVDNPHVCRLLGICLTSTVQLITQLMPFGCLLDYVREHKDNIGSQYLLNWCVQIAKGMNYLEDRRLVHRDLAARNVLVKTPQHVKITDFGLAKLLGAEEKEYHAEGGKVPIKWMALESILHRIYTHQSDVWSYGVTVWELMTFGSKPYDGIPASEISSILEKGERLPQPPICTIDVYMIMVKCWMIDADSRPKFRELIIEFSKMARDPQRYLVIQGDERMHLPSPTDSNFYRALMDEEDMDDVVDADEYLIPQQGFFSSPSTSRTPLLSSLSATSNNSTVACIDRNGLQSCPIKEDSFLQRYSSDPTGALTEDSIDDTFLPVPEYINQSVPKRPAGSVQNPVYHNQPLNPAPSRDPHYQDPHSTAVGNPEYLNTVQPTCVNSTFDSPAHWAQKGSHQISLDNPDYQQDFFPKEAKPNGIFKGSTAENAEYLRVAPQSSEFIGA
# Text: as §2, §3
# [10] = biological target: T5, pY1068 EGFR L858R (Homo sapiens, UniProt P00533, L858R); experiment: Phospho-EGFR (pY1068) inhibition HTRF, NCI-H3255; assay type: cell-based; settings: 6 hours, read-out: pEGFR IC50
# T5 construct: NCI-H3255 (harboring EGFR heterozygous L858R mutation); host or cells: NCI-H3255
# Text: as §2, §3
# [11] = biological target: T6, pY1068 EGFR L858R-T790M-C797S (Homo sapiens, UniProt P00533, C797S/L858R/T790M); experiment: Phospho-EGFR (pY1068) inhibition HTRF, NCI-H1975+CS; assay type: cell-based; settings: 6 hours, read-out: pEGFR IC50
# T6 construct: generated using CRISPR technology to introduce the additional C797S mutation by Horizon Discovery; host or cells: NCI-H1975+CS (CRISPR knock-in of C797S)
# T6 sequence (P00533 25-1210 T790M/C797S/L858R): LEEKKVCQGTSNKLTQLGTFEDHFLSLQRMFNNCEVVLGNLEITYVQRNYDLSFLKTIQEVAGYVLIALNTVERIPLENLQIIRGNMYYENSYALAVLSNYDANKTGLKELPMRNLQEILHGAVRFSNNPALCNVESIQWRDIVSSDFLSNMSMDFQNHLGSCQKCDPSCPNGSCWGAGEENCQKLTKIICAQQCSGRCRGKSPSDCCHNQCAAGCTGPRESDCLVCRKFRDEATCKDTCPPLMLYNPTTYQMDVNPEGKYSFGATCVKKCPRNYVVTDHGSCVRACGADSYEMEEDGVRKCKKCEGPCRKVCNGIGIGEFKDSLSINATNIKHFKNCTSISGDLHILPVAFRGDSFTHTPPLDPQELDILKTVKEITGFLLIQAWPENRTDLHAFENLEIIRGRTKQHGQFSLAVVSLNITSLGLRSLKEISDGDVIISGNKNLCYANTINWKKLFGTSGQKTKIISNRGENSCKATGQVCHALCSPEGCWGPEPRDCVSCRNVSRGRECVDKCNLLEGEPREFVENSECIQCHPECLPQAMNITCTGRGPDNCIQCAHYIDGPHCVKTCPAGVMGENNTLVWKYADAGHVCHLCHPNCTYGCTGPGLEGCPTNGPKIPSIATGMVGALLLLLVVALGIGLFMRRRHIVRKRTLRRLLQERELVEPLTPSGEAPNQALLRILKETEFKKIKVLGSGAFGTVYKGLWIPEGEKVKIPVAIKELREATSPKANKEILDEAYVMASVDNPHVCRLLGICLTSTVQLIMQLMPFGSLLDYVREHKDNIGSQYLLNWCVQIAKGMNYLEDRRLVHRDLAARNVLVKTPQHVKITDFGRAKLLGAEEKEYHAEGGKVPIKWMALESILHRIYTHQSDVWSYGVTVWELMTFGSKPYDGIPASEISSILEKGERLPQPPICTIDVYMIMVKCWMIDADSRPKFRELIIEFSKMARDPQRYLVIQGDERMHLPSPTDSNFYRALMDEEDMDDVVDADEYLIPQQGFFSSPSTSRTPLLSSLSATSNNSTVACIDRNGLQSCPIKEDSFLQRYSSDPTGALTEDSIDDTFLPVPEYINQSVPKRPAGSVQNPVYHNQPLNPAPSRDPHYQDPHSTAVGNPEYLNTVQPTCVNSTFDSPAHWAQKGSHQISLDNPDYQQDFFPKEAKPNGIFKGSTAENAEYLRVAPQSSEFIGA
# Text: as §2, §3
# [12] = biological target: EGFR L858R (Homo sapiens, UniProt P00533, L858R); experiment: EGFR degradation, Total EGFR (L858R-specific) HTRF, NCI-H3255; assay type: cell-based; design: NCI-H3255 (harboring EGFR heterozygous L858R mutation); host or cells: NCI-H3255; settings: H3255 (L858R), 6 hours; read-out: tEGFR DC50
# How it was run: as §1
# [13] = test system: engineered triple mutant EGFR (L858R-T790M-C797S) BaF3 tumors; experiment: BaF3 triple mutant EGFR allograft efficacy; assay type: in vivo, female BALB/c nude mice; settings: Compound 1 or 2 at 20, 50, 100 mg/kg/day PO BID; osimertinib 25 mg/kg/day PO QD; 14 days
# Experimental: Each Compound was administered BID (twice a day) orally (PO).
# Tumor volume was measured twice weekly in two dimensions using calipers, and volume (mm^3) was calculated using the formula: V=0.5 a×b^2 where a and b are the long and short diameters of the tumor in mm, respectively. […] Treatment began on Day 0 with established subcutaneous BaF3 tumors with a mean tumor volume (MTV) of 108 mm^3.
# Body weight and MTV were measured on a 2× weekly schedule. Statistical analysis was performed using a one-way ANOVA followed by Dunnett's multiple comparison test. Data are expressed as MTV±SEM.
# [14] = H1975 (L858R-T790M), read-out: tEGFR DC50
# [15] = Table 9A, NCI-H1975 cells, Total EGFR HTRF, read-out: H1975 EGFR DC50
# T1 sequence (P00533 25-1210 T790M/L858R): as the sequence (P00533 25-1210 T790M/L858R) above
Structure (SMILES),"DC50 [1, 14]","DC50 [1, 15]",IC50 [2],GI50 [3],GI50 [4],GI50 [5],GI50 [6],GI50 [7],DC50 [8],DC50 [9],IC50 [10],IC50 [11],DC50 [12],efficacy on BaF3 tumor volume [13]
"O=C1CCC(Nc2ccc(N3CCC(O)(CC(=O)N4CC5(C4)CN(c4ccc(-c6cc(F)c7c(c6)C(=O)N(C(C(=O)Nc6nccs6)c6ncn8c6CCC8)C7)cc4)C5)CC3)c(Cl)c2)C(=O)N1 (single isomer, unassigned; isomer 1) [Compound 7, 2-(6-(4-(6-(2-(1-(2-chloro-4-((2,6-dioxopiperidin-3-yl)amino)phenyl)-4-hydroxypiperidin-4-yl)acetyl)-2,6-diazaspiro[3.3]heptan-2-yl)phenyl)-4-fluoro-1-oxoisoindolin-2-yl)-2-(6,7-dihydro-5H-pyrrolo[1,2-c]imidazol-1-yl)-N-(thiazol-2-yl)acetamide, isomer 1]",15 nM,< 50 nM,17 nM,10 nM,17 nM,45 nM,7 nM,23 nM,–,–,–,–,–,–
"O=C1CCN(c2ccc(N3CCC(O)(CC(=O)N4CC5(C4)CN(c4ccc(-c6cc(F)c7c(c6)C(=O)N(C(C(=O)Nc6nccs6)c6ncn8c6CCC8)C7)cc4)C5)CC3)c(Cl)c2)C(=O)N1 (centres unmarked) [Compound 8, 2-[6-[4-[2-[2-[1-[2-chloro-4-(2,4-dioxohexahydropyrimidin-1-yl)phenyl]-4-hydroxy-4-piperidyl]acetyl]-2,6-diazaspiro[3.3]heptan-6-yl]phenyl]-4-fluoro-1-oxo-isoindolin-2-yl]-2-(6,7-dihydro-5H-pyrrolo[1,2-c]imidazol-1-yl)-N-thiazol-2-yl-acetamide]",23 nM,< 50 nM,22 nM,13 nM,2020 nM,403 nM,213 nM,45 nM,–,–,–,–,–,–
"O=C1CC[C@H](Nc2ccc(N3CCC(O)(CC(=O)N4CCC5(CC4)CN(c4ccc(-c6cc(F)c7c(c6)C(=O)N(C(C(=O)Nc6nccs6)c6ncn8c6CCC8)C7)cc4)C5)CC3)c(F)c2)C(=O)N1 (stereo partly drawn) [Compound 9, 2-(6,7-dihydro-5H-pyrrolo[1,2-c]imidazol-1-yl)-2-[6-[4-[7-[2-[1-[4-[[(3S)-2,6-dioxo-3-piperidyl]amino]-2-fluoro-phenyl]-4-hydroxy-4-piperidyl]acetyl]-2,7-diazaspiro[3.5]nonan-2-yl]phenyl]-4-fluoro-1-oxo-isoindolin-2-yl]-N-thiazol-2-yl-acetamide]",24 nM,< 50 nM,30 nM,16 nM,23 nM,82 nM,10 nM,33 nM,–,–,–,–,–,–
"Cn1nc(N2CCC(=O)NC2=O)c2ccc(C3CCN(CC(=O)N4CC5(C4)CN(c4ccc(-c6cc(F)c7c(c6)C(=O)N(C(C(=O)Nc6ccccn6)c6ncn8c6CCC8)C7)cc4)C5)CC3(F)F)cc21 (centres unmarked) [Compound 5, 2-(6,7-dihydro-5H-pyrrolo[1,2-c]imidazol-1-yl)-2-[6-[4-[2-[2-[4-[3-(2,4-dioxohexahydropyrimidin-1-yl)-1-methyl-indazol-6-yl]-3,3-difluoro-1-piperidyl]acetyl]-2,6-diazaspiro[3.3]heptan-6-yl]phenyl]-4-fluoro-1-oxo-isoindolin-2-yl]-N-(2-pyridyl)acetamide]",–,< 50 nM,12 nM,–,–,–,–,–,23 nM,> 10000 nM,19 nM,22 nM,22 nM,–
"C=CC(=O)Nc1cc(Nc2nccc(-c3cn(C)c4ccccc34)n2)c(OC)cc1N(C)CCN(C)C [osimertinib, reference compound]",–,–,–,–,–,–,–,–,–,–,–,–,–,minimal efficacy
